Patent US12492188B2, “1H-benzo[D]imidazole derivatives as TLR9 inhibitors for the treatment of fibrosis” (BRISTOL-MYERS SQUIBB COMPANY, priority 2020, dated 2025)
Like-named read-outs stand apart in the source and are kept apart here.

Experiments:
Type in all cases: cell-based
human TLR9 = molecular target: T1, human TLR9 (Homo sapiens, UniProt Q9NR96); experiment: TLR9 inhibition reporter assay (HEK-Blue cells, secreted embryonic alkaline phosphatase reporter)
T1 construct: host or cells: HEK-Blue cells (HEK293-derived reporter line)
T1 sequence (Q9NR96 26-1032): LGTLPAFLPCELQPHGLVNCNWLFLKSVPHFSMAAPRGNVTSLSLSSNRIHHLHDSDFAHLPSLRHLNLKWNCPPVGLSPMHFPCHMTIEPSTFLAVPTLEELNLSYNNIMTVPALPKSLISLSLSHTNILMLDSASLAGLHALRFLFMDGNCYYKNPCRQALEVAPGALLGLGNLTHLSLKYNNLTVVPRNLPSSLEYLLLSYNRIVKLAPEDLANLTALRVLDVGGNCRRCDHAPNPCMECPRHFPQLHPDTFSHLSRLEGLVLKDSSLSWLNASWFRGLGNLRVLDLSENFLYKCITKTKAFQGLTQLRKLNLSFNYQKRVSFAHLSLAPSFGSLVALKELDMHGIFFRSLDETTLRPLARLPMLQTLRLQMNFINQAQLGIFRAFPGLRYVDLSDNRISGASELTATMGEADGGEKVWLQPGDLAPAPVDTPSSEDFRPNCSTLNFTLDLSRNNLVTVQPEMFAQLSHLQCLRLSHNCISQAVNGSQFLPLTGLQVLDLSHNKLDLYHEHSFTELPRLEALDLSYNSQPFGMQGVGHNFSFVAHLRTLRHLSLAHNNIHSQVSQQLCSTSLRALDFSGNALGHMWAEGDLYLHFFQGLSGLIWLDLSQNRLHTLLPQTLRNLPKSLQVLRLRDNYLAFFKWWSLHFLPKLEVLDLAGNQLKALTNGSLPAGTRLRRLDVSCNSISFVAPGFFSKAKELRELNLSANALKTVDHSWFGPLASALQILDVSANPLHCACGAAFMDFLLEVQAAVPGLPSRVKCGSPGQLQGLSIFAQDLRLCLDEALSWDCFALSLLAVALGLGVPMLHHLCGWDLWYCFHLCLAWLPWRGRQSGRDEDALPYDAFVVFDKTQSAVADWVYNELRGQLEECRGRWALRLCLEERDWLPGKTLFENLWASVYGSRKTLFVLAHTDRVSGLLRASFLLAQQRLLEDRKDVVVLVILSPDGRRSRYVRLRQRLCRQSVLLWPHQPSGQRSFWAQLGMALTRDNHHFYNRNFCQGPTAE
Outline: (§1)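 Steps: seed receptor-specific HEK-Blue cells; add compound, 0.05 nM–50 μM; wait 30 min at room temperature; add final gardiquimod 7.5 μM, R848 15.9 μM or ODN2006 5 nM for TLR7, TLR8 or TLR9; incubate 22 h at 37 °C; detect NF-κB/AP-1-driven SEAP.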

human TLR7 = molecular target: T2, human TLR7 (Homo sapiens, UniProt Q9NYK1); experiment: TLR7 inhibition reporter assay (HEK-Blue cells, secreted embryonic alkaline phosphatase reporter); settings: HEK-Blue cells overexpressing human TLR7, stimulated with gardiquimod 7.5 μM; read-out: TLR 7 IC50
T2 construct: host or cells: HEK-Blue cells (HEK293-derived reporter line)
T2 sequence (Q9NYK1 27-1049): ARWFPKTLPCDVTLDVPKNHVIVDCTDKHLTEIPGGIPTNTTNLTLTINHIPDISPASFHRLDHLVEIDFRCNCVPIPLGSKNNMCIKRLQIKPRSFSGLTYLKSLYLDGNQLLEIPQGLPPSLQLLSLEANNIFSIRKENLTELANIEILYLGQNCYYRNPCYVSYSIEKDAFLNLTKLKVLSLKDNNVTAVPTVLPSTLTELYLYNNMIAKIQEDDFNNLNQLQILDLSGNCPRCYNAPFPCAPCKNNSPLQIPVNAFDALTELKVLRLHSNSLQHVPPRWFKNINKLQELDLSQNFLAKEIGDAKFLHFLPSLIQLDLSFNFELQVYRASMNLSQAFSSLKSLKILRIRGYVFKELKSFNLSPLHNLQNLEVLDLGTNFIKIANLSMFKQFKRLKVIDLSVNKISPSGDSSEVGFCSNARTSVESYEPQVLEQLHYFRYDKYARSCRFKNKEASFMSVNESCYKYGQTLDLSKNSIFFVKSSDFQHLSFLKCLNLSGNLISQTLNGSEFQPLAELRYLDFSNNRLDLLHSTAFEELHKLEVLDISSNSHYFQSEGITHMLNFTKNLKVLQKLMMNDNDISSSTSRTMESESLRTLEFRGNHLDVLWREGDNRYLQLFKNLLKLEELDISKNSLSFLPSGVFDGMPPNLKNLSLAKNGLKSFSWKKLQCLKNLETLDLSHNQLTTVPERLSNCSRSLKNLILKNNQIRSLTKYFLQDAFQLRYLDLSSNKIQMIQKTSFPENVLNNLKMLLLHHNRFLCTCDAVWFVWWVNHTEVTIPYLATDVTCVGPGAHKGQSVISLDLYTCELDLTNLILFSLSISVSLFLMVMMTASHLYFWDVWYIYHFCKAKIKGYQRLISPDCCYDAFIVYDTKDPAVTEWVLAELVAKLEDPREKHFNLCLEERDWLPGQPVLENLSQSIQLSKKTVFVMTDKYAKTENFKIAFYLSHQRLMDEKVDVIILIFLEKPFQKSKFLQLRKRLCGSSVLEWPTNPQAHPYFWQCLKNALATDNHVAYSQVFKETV
Outline: as §1

human TLR8 = molecular target: T3, human TLR8 (Homo sapiens, UniProt Q9NR97); experiment: TLR8 inhibition reporter assay (HEK-Blue cells, secreted embryonic alkaline phosphatase reporter); settings: HEK-Blue cells overexpressing human TLR8, stimulated with R848 15.9 μM; read-out: TLR 8 IC50
T3 construct: host or cells: HEK-Blue cells (HEK293-derived reporter line)
T3 sequence (Q9NR97 27-1041): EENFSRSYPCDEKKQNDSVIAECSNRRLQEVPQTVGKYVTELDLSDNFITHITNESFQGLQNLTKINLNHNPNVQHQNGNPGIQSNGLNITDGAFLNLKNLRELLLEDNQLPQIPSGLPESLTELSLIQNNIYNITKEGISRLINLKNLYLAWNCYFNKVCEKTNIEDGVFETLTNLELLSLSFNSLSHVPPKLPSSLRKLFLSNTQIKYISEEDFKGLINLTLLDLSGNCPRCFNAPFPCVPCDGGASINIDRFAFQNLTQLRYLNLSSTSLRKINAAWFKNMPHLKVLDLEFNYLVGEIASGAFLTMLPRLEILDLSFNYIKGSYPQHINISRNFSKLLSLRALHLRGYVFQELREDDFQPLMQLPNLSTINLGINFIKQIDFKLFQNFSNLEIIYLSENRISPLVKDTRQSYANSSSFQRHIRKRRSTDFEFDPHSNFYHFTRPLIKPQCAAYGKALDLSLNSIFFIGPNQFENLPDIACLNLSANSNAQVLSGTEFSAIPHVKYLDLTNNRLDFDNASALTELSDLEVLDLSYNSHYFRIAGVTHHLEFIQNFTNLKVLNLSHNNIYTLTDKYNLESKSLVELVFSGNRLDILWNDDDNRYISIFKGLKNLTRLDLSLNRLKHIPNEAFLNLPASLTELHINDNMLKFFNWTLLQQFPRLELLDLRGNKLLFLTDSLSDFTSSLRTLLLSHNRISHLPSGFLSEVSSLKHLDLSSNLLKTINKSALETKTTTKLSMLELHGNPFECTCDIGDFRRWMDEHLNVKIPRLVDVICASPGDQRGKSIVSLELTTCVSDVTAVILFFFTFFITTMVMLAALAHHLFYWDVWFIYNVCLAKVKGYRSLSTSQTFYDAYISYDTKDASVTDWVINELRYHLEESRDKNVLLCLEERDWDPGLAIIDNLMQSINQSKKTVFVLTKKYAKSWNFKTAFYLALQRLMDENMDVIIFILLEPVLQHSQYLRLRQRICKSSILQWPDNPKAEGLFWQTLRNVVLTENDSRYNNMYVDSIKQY
Outline: as §1

[1] = HEK-Blue cells overexpressing human TLR9, stimulated with ODN2006 5 nM, 22 hour incubation, reporter readout
[2] = HEK-Blue cells overexpressing human TLR9, stimulated with ODN2006 5 nM, read-out: TLR 9 IC50

| SMILES | IC50 (human TLR9; [1]) | IC50 (human TLR9; [2]) | IC50 (human TLR7) | IC50 (human TLR8) | IC50 (human TLR9) | IC50 (human TLR9; HEK-Blue human TLR9 reporter cells) |
| --- | --- | --- | --- | --- | --- | --- |
| CC(C)N1C2CCC1CC(N1CCC(c3ccc4c(nc(-c5ccc(S(C)(=O)=O)cc5)n4C)c3F)CC1)C2 (single isomer, unassigned) [Example 89, 4-fluoro-5-(1-(8-isopropyl-8-azabicyclo[3.2.1]octan-3-yl)piperidin-4-yl)-1-methyl-2-(4-(methylsulfonyl)phenyl)-1H-benzo[d]imidazole] | 160 nM | 162 nM | > 50000 nM | > 50000 nM | – | – |
| CN(C)C1CCN(Cc2ccc(-c3ccc4nc(-c5ccc(C#N)cc5)n(C)c4c3)cc2)CC1 [Example 383, 4-(6-(4-((4-(dimethylamino)piperidin-1-yl)methyl)phenyl)-1-methyl-1H-benzo[d]imidazol-2-yl)benzonitrile] | 68 nM | 68 nM | 2200 nM | 2300 nM | – | – |
| CC(C)CN1C2CCC1CC(N1CCC(c3cc4c(cc3F)nc(-c3ccc(S(C)(=O)=O)cc3)n4C)CC1)C2 (single isomer, unassigned) [Example 229, 5-fluoro-6-(1-(8-isobutyl-8-azabicyclo[3.2.1]octan-3-yl)piperidin-4-yl)-1-methyl-2-(4-(methylsulfonyl)phenyl)-1H-benzo[d]imidazole] | – | 95 nM | 43200 nM | > 50000 nM | 95 nM | – |
| CC(C)CN1CCC(N2CCC(c3cc(F)c4nc(-c5ccc(S(C)(=O)=O)cc5)n(C5CC5)c4c3)CC2)CC1 [Example 319, 1-cyclopropyl-4-fluoro-6-(1′-isobutyl-[1,4′-bipiperidin]-4-yl)-2-(4-(methylsulfonyl)phenyl)-1H-benzo[d]imidazole] | – | 94 nM | 1400 nM | > 50000 nM | – | 94 nM |
| Cn1c(-c2ccc(S(C)(=O)=O)cc2)nc2cc(F)c(C3CCN(C4CCN(CC5CC5)CC4)CC3)cc21 [Example 224, 6-(1′-(cyclopropylmethyl)-[1,4′-bipiperidin]-4-yl)-5-fluoro-1-methyl-2-(4-(methylsulfonyl)phenyl)-1H-benzo[d]imidazole] | – | 192 nM | 25700 nM | > 50000 nM | 190 nM | – |
| Cc1cc(C2CCN(C3CCN(CC(C)C)CC3)CC2)cc2[nH]c(-c3ccc(S(C)(=O)=O)cc3)nc12 [Example 58, 6-(1′-isobutyl-[1,4′-bipiperidin]-4-yl)-4-methyl-2-(4-(methylsulfonyl)phenyl)-1H-benzo[d]imidazole tris(2,2,2-trifluoroacetate)] | 47 nM | 47 nM | 3100 nM | > 50000 nM | – | – |
| Cn1c(-c2ccc(S(C)(=O)=O)cc2)nc2ccc(C3CCN(C4CCN(C5CC5)CC4)CC3)c(F)c21 [Example 260, 6-(1′-cyclopropyl-[1,4′-bipiperidin]-4-yl)-7-fluoro-1-methyl-2-(4-(methylsulfonyl)phenyl)-1H-benzo[d]imidazole] | – | 660 nM | 21500 nM | > 50000 nM | 660 nM | – |
| COCCN1C2CCC1CC(N1CCC(c3ccc4nc(-c5ccc(S(C)(=O)=O)cc5)n(C)c4c3F)CC1)C2 (single isomer, unassigned) [Example 276, 7-fluoro-6-(1-(8-(2-methoxyethyl)-8-azabicyclo[3.2.1]octan-3-yl)piperidin-4-yl)-1-methyl-2-(4-(methylsulfonyl)phenyl)-1H-benzo[d]imidazole] | – | 167 nM | 1500 nM | > 50000 nM | 170 nM | – |
| COc1ccc(-c2nc3c(C)cc(C4CC5CCC(C4)N5C4CCN(CC(C)C)CC4)cc3n2C)cc1OC (stereo not shown) [Example 50, 2-(3,4-dimethoxyphenyl)-6-(8-(1-isobutylpiperidin-4-yl)-8-azabicyclo[3.2.1]octan-3-yl)-1,4-dimethyl-1H-benzo[d]imidazole] | 23 nM | 23 nM | 2900 nM | > 50000 nM | – | – |
| Cn1c(-c2ccc(S(C)(=O)=O)cc2)nc2cc(F)c(C3CCN(C4CC5CCC(C4)N5C4CCOCC4)CC3)cc21 (stereo not shown) [Example 237, 5-fluoro-1-methyl-2-(4-(methylsulfonyl)phenyl)-6-(1-(8-(tetrahydro-2H-pyran-4-yl)-8-azabicyclo[3.2.1]octan-3-yl)piperidin-4-yl)-1H-benzo[d]imidazole] | – | 87 nM | > 50000 nM | > 50000 nM | 87 nM | – |
| COc1ccc(-c2nc3c(C)cc(C4CCN(C5CC6CCC(C5)N6CC(C)C)CC4)cc3[nH]2)cc1OC (single isomer, unassigned) [Example 19, 2-(3,4-dimethoxyphenyl)-6-(1-(8-isobutyl-8-azabicyclo[3.2.1]octan-3-yl)piperidin-4-yl)-4-methyl-1H-benzo[d]imidazole] | 28 nM | – | 2500 nM | > 50000 nM | – | – |
